Source: patent US20220389377A1, “TREATMENT OF MEDICAL CONDITIONS BY STEM CELL TRANSPLANTS AND STEM CELL ACTIVATION” (Vitro Biopharma, Inc., priority 2021, published 2022)
Read-outs that look alike come from different tables or passages of the source. Each block holds one compound with its values, some of them ahead of it.

How the values were obtained:
human MSCs [1] = assay: cells; conditions: for effect on MSC migration induced by curcumin and quercetin / effect on MSC migration induced by curcumin and resveratrol: 20 μM AMD3100 or 15 μM GM6001; for effect on MSC migration induced by Li-VPA: both AMD 3100 and GM6001 present; for EC50: Homo sapiens
Protocol: (§1) FIG. 1 is a microphotograph depicting cell migration using fluorescent readout and cell tracker green as a fluorescent marker of human UC-MSCs. […] The EC50 was determined as a measure of effectiveness of activating agents. […] An initial analysis of the cell free zone using Image J software was used to screen concentrations of activating agents for dose-response determination in further experiments.
(§2) The cell migration assays described above were set up as follows: One million cells/cell line were resuspended in 10 mL MSC-Gro™ serum free, quiescent medium (Vitro Biopharma Cat. No. SCO0B17) containing 5 μg/mL mitomycin C (Sigma, Cat. No. M4287) to inhibit proliferation and incubated for 2 hours at room temperature with end-to-end agitation at 7 RPM.
In some experiments, curcumin was used at 1 μM to block proliferation. Cells were centrifuged (450×g) for 7 minutes, washed with PBS and then resuspended in 1 mL MSC-Gro™ low serum, complete medium (Vitro Biopharma Cat. No. SCO0B1) and plated at 25,000 cells/well in black 96 well, TC-coated cell culture plates (ThermoScientific, Cat. No. 165305) containing cell seed-stoppers (Platypus, Cat. No. CMAUFL4) to form a cell free zone at the center of the well and incubated in 5% CO2, 1% O2, 94% N2 at 37° C. in a humidified chamber for 24 hrs. Plates used for culture of NSCs were first treated with 10 μg/mL fibronectin (Sigma, Cat. No. F0556) for 2 hours at 37° C. Following washout with PBS (3×), cell seed stoppers were inserted, NSCs were plated at 25,000/well and incubated in 5% CO2, 1% O2, 94% N2 at 37° C. in a humidified chamber for 48 hrs.
For studies of the effects of CXCR4 and MMP-9 inhibition following 24 hours of cell culture, appropriate wells were dosed with 15 μM GM6001 and 20 μM AMD3100 for 6 hours. Cells were washed once with PBS then incubated in serum free, MSC-Gro™ (Vitro Biopharma Cat. No. SCO0B17) containing 5 μM Cell Tracker Green CIVIFDA (Molecular Probes, Cat. No. C7025) at 37° C. for 30 minutes. The wells were then washed with serum free, MSC-Gro™ (Vitro Biopharma Cat. No. SCO0B17) and incubated for 30 minutes at 37° C. Cells were washed once with PBS and this was replaced with MSC-Gro™ serum free, quiescent medium (Vitro Biopharma Cat. No. SCO0B17) containing different concentrations of activating agents. […] A TopSeal (PerkinElmer, Cat. No. 6050195) covered the plate for live-cell imaging in a BioTek Cytation3 imaging reader. Kinetic data was acquired every 2 hrs for 24 hrs using a GFP filter and bright field data acquisition. The gas phase throughout the acquisition of kinetic data was 5% O2, 5% CO2 with the balance nitrogen maintained by a BioTek CO2/O2 gas controller. Images were saved as TIFF files to calculate percent closure using imaging data.

human MSCs [2] = assay: Gene expression analysis by qPCR in human MSCs; type: cell-based; conditions: for expression levels of FGF-21, CXCR4 and Hsp70 / expression of Oct 3/4 / expression of SIRT-1: 250 μM VPA, 500 nM curcumin, FIG. 13
Protocol: Beta actin was measured as a house-keeping gene. […] Gene expression was quantified by determining the amount of gene-specific DNA/total cDNA. Data is mean+/−SD of 4 replicates.
Native human umbilical cord-derived MSCs (Vitro Biopharma Cat. No. SC00A1) were expanded from cryopreservation in T-25 TC-coated flasks (BD Falcon, Cat. No. 353108) in MSC-Gro™ low serum, complete medium (Vitro Biopharma Cat. No. SCO0B1). Cells were sub-cultured and counted on a Beckerman-Coulter Z2 particle counter (range 10 μm-30 μm). Cells were plated at 10,000/cm^2 a TC-coated Greiner Bio-One T75 flask and maintained in MSC-Gro™ serum free, complete medium (Vitro Biopharma Cat. No. SCO0B3) in a reduced O2 environment (1% O2, 5% CO2, 94% N2) at 37° C. in a humidified chamber. The MSCs were treated continuously for up to 2 weeks. Cultures were fed every 3 days. Cells were harvested using Accutase (Innovative Cell Technologies Inc., Cat No AT-104) and centrifuged (450×g) for 7 minutes. Cell supernatant was aspirated off and cells were resuspended in 1 mL PBS and counted on a Beckerman-Coulter Z2 particle counter (range 10 μm-30 μm). Total RNA was extracted using RNeasy mini kit (Qiagen Cat. No. 74104). RNA was quantified using an absorbance measurement at 260 nm. RNA was converted to cDNA using Quantitect reverse transcription kit (Qiagen Cat. No. 205310) in a thermocycler. RNA was incubated in the gDNA elimination reaction for 2 minutes at 42° C. then incubated in the reverse-transcription master mix for 15 minutes at 42° C. Immediately after, it was incubated at 95° C. for 3 minutes for inactivation. cDNA was sent to an outside lab (CU-Anschutz Metabolic Laboratory) for q-PCR to detect relative or absolute gene expression levels. cDNA was diluted 1:5 and an iTaq Universal Supermix fluorescent probe (BioRad Cat. No. 172-5120) used to detect the threshold cycle (Ct) during PCR Dilution factors and cDNA concentrations were calculated into recorded values then normalized to untreated hMSCs (Vitro Biopharma Cat. No. SC00A1).
Gene expression was quantified by determining the amount of gene-specific DNA/total cDNA. Data is mean+/−SD of 4 replicates.
Native human umbilical cord-derived MSCs (Vitro Biopharma Cat. No. SC00A1) were expanded from cryopreservation in T-25 TC-coated flasks (BD Falcon, Cat. No. 353108) in MSC-Gro™ low serum, complete medium (Vitro Biopharma Cat. No. SCO0B1). Cells were sub-cultured and counted on a Beckerman-Coulter Z2 particle counter (range 10 μm-30 μm). Cells were plated at 10,000/cm2 a TC-coated Greiner Bio-One T75 flask and maintained in MSC-Gro™ serum free, complete medium (Vitro Biopharma Cat. No. SCO0B3) in a reduced O2 environment (1% O2, 5% CO2, 94% N2) at 37° C. in a humidified chamber. The MSCs were treated continuously for up to 2 weeks. Cultures were fed every 3 days. Cells were harvested using Accutase (Innovative Cell Technologies Inc., Cat No AT-104) and centrifuged (450×g) for 7 minutes. Cell supernatant was aspirated off and cells were resuspended in 1 mL PBS and counted on a Beckerman-Coulter Z2 particle counter (range 10 μm-30 μm).
Total RNA was extracted using RNeasy Mini Kit (Qiagen Cat. No. 74104). RNA was quantified using an absorbance measurement at 260 nm. RNA was converted to cDNA using Quantitect reverse transcription Kit (Qiagen Cat. No. 205310) in a thermocycler. RNA was incubated in the DNA elimination reaction for 2 minutes at 42° C. then incubated in the reverse-transcription master mix for 15 minutes at 42° C. Immediately after, it was incubated at 95° C. for 3 minutes for inactivation. cDNA was sent to an outside lab (CU-Anschutz Metabolic Laboratory) for q-PCR to detect relative or absolute gene expression levels. cDNA was diluted 1:5 and an iTaq Universal Supermix fluorescent probe (BioRad Cat. No. 172-5120) was used to detect the threshold cycle (Ct) during PCR.

human fibroblast = conditions: read-out: EC50 of human fibroblast migration induced by Substance P (prior study); suspension culture system; Parenti et al. 1996; cited from earlier work
human NSCs = assay: Cell migration assay, human NSCs; type: cell-based; conditions: read-out: EC50 of VPA for NSC migration in 200 μM lithium, increasing VPA in 200 μM lithium, FIG. 6
Protocol: as §1, §2
In some experiments, curcumin was used at 1 μM to block proliferation. […]
For studies of the effects of CXCR4 and MMP-9 inhibition following 24 hours of cell culture, appropriate wells were dosed with 15 μM GM6001 and 20 μM AMD3100 for 6 hours. […] A TopSeal (PerkinElmer, Cat. No. 6050195) covered the plate for live-cell imaging in a BioTek Cytation3 imaging reader. […]

MSCs = assay: Presto Blue proliferation assay, MSCs; type: cell-based; conditions: Homo sapiens
Protocol: (§3) Example 5: Effects of lithium and VPA on stem cell proliferation: The effects of lithium and VPA on stem cell proliferation were then investigated using an assay based on Presto Blue, a fluorescent marker of cellular reduction. FIG. 8 is a line graph representation illustrating proliferation of different cell lines induced by increasing concentrations of FGF-b (FGF-2) after a 5 day exposure. Relative fluorescent units were measured using a FITC filter on a Modulus microplate reader and plotted as a function of FGF-2. The data was modeled by sigmoidal curve fitting to calculate EC50 values. […] Proliferation of these mesenchymal cells was stimulated by recombinant human FGF-2 with EC50 values in the range of 3 to 6 ng/ml with maximal proliferative responses at about 10 ng/ml.
The proliferative effects of lithium and VPA were compared, either alone or in combination to MSC proliferation. The results are shown in FIG. 9, which is a line graph representation illustrating proliferation of MSCs induced by lithium, VPA and VPA in 200 μM lithium after a 5 day exposure. Relative fluorescent units were measured using a FITC filter on a Modulus microplate reader and plotted as a function of FGF-2. The data was modeled by sigmoidal curve fitting to calculate EC50 values.

NSCs = assay: Presto Blue proliferation assay, NSCs; type: cell-based; conditions: Homo sapiens, 120 h, read-out: EC50 of VPA for NSC proliferation in 200 μM lithium, 5 day exposure, FIG. 10
Protocol: as §3
The proliferative responses of MSCs and NSCs were compared to Li-VPA. The results are shown in FIG. 10, which is a line graph representation illustrating proliferation of MSCs and NSCs as a function of increasing VPA in 200 μM lithium after a 5 day exposure. Relative fluorescent units were measured using a FITC filter on a Modulus microplate reader and plotted as a function of FGF-2. The data was modeled by sigmoidal curve fitting to calculate EC50 values. […] This may reflect intrinsic proliferative capacity. […]

[3] = test system: CAFs, primary fibroblasts and MSCs; assay: Presto Blue proliferation assay, CAFs, primary fibroblasts and MSCs (FGF-2 validation); type: cell-based, human; conditions: 5 day exposure
Protocol: as §3

[4] = Example 6, 31.25 μM VPA, 200 μM lithium, FIG. 11

Compound: c1cc(CN2CCCNCCNCCCNCC2)ccc1CN1CCCNCCNCCCNCC1 [AMD3100]
effect on VPA-induced MSC migration (human MSCs [1]; 20 μM AMD3100, CXCR4 inhibitor, FIG. 7): blocked | effect on MSC migration induced by curcumin and quercetin (human MSCs [1]; FIG. 14): blocked MSC migration | effect on MSC migration induced by curcumin and resveratrol (human MSCs [1]; FIG. 15): blocked MSC migration | effect on MSC migration induced by Li-VPA (human MSCs [1]; FIG. 7): blocked

Compound: CNC(=O)[C@H](Cc1c[nH]c2ccccc12)NC(=O)[C@@H](CC(=O)NO)CC(C)C [GM6001]
effect on lithium-induced MSC migration (human MSCs [1]; 15 μM GM6001, MMP-9 inhibitor, FIG. 7): blocked | effect on MSC migration induced by curcumin and quercetin (human MSCs [1]; FIG. 14): blocked MSC migration | effect on MSC migration induced by curcumin and resveratrol (human MSCs [1]; FIG. 15): blocked MSC migration | effect on MSC migration induced by Li-VPA (human MSCs [1]; FIG. 7): blocked

Compound: CCCC(=O)[O-].[Na+] [Na butyrate]
expression levels of FGF-21, CXCR4 and Hsp70 (human MSCs [2]; Example 8): lower levels | expression of Oct 3/4 (human MSCs [2]; Example 8): less expression activation | expression of SIRT-1 (human MSCs [2]; Example 8): significantly less effective

Compound: CSCC[C@H](NC(=O)[C@H](CC(C)C)NC(=O)CNC(=O)[C@H](Cc1ccccc1)NC(=O)[C@H](Cc1ccccc1)NC(=O)[C@H](CCC(N)=O)NC(=O)[C@H](CCC(N)=O)NC(=O)[C@@H]1CCCN1C(=O)[C@H](CCCCN)NC(=O)[C@@H]1CCCN1C(=O)[C@@H](N)CCCNC(=N)N)C(N)=O [Substance P]
MSC migration into cell-free center of the well (human MSCs [1]; 3.7 nM Substance P, 24 hours): induced MSC migration into the cell-free center of the well | MSC migration (percent closure) dose-response (human MSCs [1]; Substance P from 0 to 18.5 nM, 24-hour live cell analysis): migration increased in a dose-dependent manner | EC50 (human fibroblast): 0.0022 µM

Compound: CC(/C=C/C(=O)NO)=C\[C@@H](C)C(=O)c1ccc(N(C)C)cc1 [TSA]
expression levels of FGF-21, CXCR4 and Hsp70 (human MSCs [2]; Example 8): lower levels | expression of Oct 3/4 (human MSCs [2]; Example 8): less expression activation | expression of SIRT-1 (human MSCs [2]; Example 8): significantly less effective

EC50 (human MSCs [1]; read-out: EC50 of MSC migration, agent alone, percent closure, sigmoidal curve fit, FIG. 5): 38.5 µM | EC50 (human MSCs [1]; read-out: EC50 of VPA for MSC migration in 200 μM lithium, increasing VPA in 200 μM lithium): 33 µM | EC50 (human NSCs): 35.2 µM
Compound: CCCC(CCC)C(=O)O [VPA, valproic acid]
concentration of maximal migration / maximum closure (human MSCs [1]; agent alone, FIG. 5): 100 µM | EC50 (MSCs; 200 μM lithium, MSCs and NSCs, proliferation and migration, read-out: VPA concentration 50% effective in inducing cell proliferation and migration (mean)): 37 µM | EC50 (MSCs; 200 μM lithium, MSCs and NSCs, proliferation and migration, read-out: VPA concentration 50% effective in inducing cell proliferation and migration (range)): 35 to 39 µM | EC50 (MSCs; 120 h, 5 day exposure, FIG. 9, read-out: EC50 of MSC proliferation, agent alone): 47.7 µM | EC50 (MSCs; 120 h, read-out: EC50 of VPA for MSC proliferation in 200 μM lithium, 5 day exposure, 200 μM lithium): 63.3 µM | EC50 (NSCs): 36.8 µM | expression of Oct 3/4 compared to untreated human MSCs (human MSCs [2]; [4]): about 20 fold | expression of SIRT-1 compared to untreated MSC (human MSCs [2]; [4]): ~300 fold | expression of Oct 3/4 (human MSCs [2]; Example 8): about 20 fold | expression of SIRT-1 (human MSCs [2]; Example 8): ~300 fold

Compound: COc1cc(/C=C/C(=O)CC(=O)/C=C/c2ccc(O)c(OC)c2)ccc1O [curcumin]
EC50 (human MSCs [1]; 36 h, read-out: apparent EC50 of curcumin-induced migration, MSCs, percent closure after 36-hour run): 0.25 µM | concentration at which curcumin induced migration (human MSCs [1]; human MSCs, 36-hour run): less than 1 μM | estimated LD50 (apparent toxicity, reduced cell number) (human MSCs [1]; human, 36 h): 3 µM | expression of Oct 3/4, SIRT-1, FGF21, CXCR4 and Hsp70 as compared to VPA (human MSCs [2]; Example 8, 500 nM curcumin vs 250 μM VPA): equivalent or increased expression | expression of Oct 3/4 (human MSCs [2]; Example 8): about 20 fold | expression of SIRT-1 (human MSCs [2]; Example 8): ~300 fold

EC50 (human MSCs [1]; read-out: EC50 of quercetin for MSC migration in 500 nM curcumin, 500 nM curcumin, FIG. 14): 0.317 µM
Compound: O=c1c(O)c(-c2ccc(O)c(O)c2)oc2cc(O)cc(O)c12 [quercetin]

EC50 (human MSCs [1]; read-out: EC50 of resveratrol for MSC migration in 500 nM curcumin, 500 nM curcumin, FIG. 15): 0.253 µM
Compound: Oc1ccc(C=Cc2cc(O)cc(O)c2)cc1 [resveratrol]

Compound: CCCCC(=O)O [valeric acid]
expression levels of FGF-21, CXCR4 and Hsp70 (human MSCs [2]; Example 8): lower levels | expression of Oct 3/4 (human MSCs [2]; Example 8): less expression activation | expression of SIRT-1 (human MSCs [2]; Example 8): significantly less effective

Compound: FGF-2: recombinant human FGF-2, member of the family of fibroblast growth factors
concentration of maximal proliferative responses [3]: about 10 ng/ml
